Data on 2 molecules can be found in patent US6734310B2, “Fluorescent marker” (FEW Chemicals GmbH, priority 2000, dated 2004).

Series [1] can be described thus: VIS spectra of dye after coupling to a protein (aggregation in the protein conjugate). The settings on record: FIG. 1.
For series [2] the following is noted: protein conjugate vs free dye; cited from earlier work.

On to `CC(C=CC1=[N+](CCCCCC(=O)O)c2ccc(S(=O)(=O)[O-])cc2C1(C)C)=CC=C1N(CCCCCC(=O)O)c2ccc(S(=O)(=O)[O-])cc2C1(C)C.[Na+]` [Example 1, 1-(5-carboxypentyl)-2-[5-(l-(5-carboxypentyl)-1,3-dihydro-3,3-dimethyl-5-sulpho-2H-indole-2-ylidene)-3-methylpenta-1,3-dienyl]-3,3-dimethyl-5-sulpho-3H-indolium-inner Salt, Sodium Salt], for which the “VIS spectrum curve shape (monomer / dimer band)” value in series [1] is given as “typical curve shape for a monomer”.
Turning to `CC(C=CC1=[N+](CCCCCC(=O)O)c2ccc(S(=O)(=O)[O-])cc2C1(C)C)=C1N(CCCCCC(=O)O)c2ccc(S(=O)(=O)[O-])cc2C1(C)C.[Na+]` [Example 3, 1-(5-carboxypentyl)-2-[3-(1,3-dihydro-1-(5-carboxypentyl)-3,3-dimethyl-5-sulpho-2H-indole-2-ylidene)-3-methylprop-1-enyl]-3,3-dimethyl-5-sulpho-3H-indolium Hydroxide, Inner Salt, Sodium Salt], in series [2], the “decrease of fluorescence quantum yield of the protein conjugate compared with free, unconjugated dye” value is recorded as “around ¼”.
